Data reported in US8987467B2, “Substituted pyrazole azetidines as sphingosine receptor modulators” (Allergan, Inc., priority 2013, dated 2015).

Biological target: T1, human S1P1 receptor (Homo sapiens, UniProt P21453)
T1 construct: expressed in transfected cells; membranes used
Assay: GTP γ35S binding assay for S1P1 activity
Assay type: biochemical
Conditions: membranes of cells stably expressing the S1P1 receptor; test concentrations 0.08 to 5,000 nM; 30 min at 25° C.; read-out: S1P1 EC50 (Activity potency: S1P1 receptor from GTP γ35S)
Procedure: Compounds were tested for S1P1 activity using the GTP γ^35S binding assay. These compounds may be assessed for their ability to activate or block activation of the human S1P1 receptor in cells stably expressing the S1P1 receptor.
GTP γ^35S binding was measured in the medium containing (mM) HEPES 25, pH 7.4, MgCl2 10, NaCl 100, dithiothreitol 0.5, digitonin 0.003%, 0.2 nM GTP γ^355, and 5 μg membrane protein in a volume of 150 μl. Test compounds were included in the concentration range from 0.08 to 5,000 nM unless indicated otherwise. Membranes were incubated with 100 μM 5′-adenylylimidodiphosphate for 30 min, and subsequently with 10 μM GDP for 10 min on ice. Drug solutions and membrane were mixed, and then reactions were initiated by adding GTP γ^355 and continued for 30 min at 25° C. Reaction mixtures were filtered over Whatman GF/B filters under vacuum, and washed three times with 3 mL of ice-cold buffer (HEPES 25, pH 7.4, MgCl2 10 and NaCl 100). Filters were dried and mixed with scintillant, and counted for ^35S activity using a β-counter. Agonist-induced GTP γ^355 binding was obtained by subtracting that in the absence of agonist. Binding data were analyzed using a non-linear regression method. In case of antagonist assay, the reaction mixture contained 10 nM S1P in the presence of test antagonist at concentrations ranging from 0.08 to 5000 nM.

T1 sequence (P21453 whole entry): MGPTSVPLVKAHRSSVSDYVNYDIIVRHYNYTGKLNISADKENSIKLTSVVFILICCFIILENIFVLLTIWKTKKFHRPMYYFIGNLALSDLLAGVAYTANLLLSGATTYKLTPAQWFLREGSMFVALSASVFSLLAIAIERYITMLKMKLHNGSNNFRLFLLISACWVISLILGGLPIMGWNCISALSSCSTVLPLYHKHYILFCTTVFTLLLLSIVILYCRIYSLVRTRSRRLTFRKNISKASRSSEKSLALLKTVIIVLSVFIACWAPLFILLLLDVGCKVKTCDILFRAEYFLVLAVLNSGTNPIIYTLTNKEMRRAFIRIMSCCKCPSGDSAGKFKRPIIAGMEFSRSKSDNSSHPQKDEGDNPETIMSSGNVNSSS

Structure (SMILES) | EC50 [nM]
CCN1N=C(c2nc(-c3ccc(CN4CC(C(=O)O)C4)cc3)no2)CC1c1ccccc1 (stereo not shown) [Compound 1, 1-{4-[5-(1-ethyl-5-phenyl-4,5-dihydro-1H-pyrazol-3-yl)-1,2,4-oxadiazol-3-yl]benzyl}azetidine-3-carboxylic acid] | 252
CCN1N=C(c2nc(-c3cc(F)c(CN4CC(C(=O)O)C4)c(F)c3)no2)CC1c1ccccc1 (stereo not shown) [Compound 4, 1-{4-[5-(1-ethyl-5-phenyl-4,5-dihydro-1H-pyrazol-3-yl)-1,2,4-oxadiazol-3-yl]-2,6-difluorobenzyl}azetidine-3-carboxylic acid] | 51
CCc1cc(-c2noc(C3=NN(CC)C(c4ccccc4)C3)n2)ccc1CN1CC(C(=O)O)C1 (stereo not shown) [Compound 5, 1-{2-ethyl-4-[5-(1-ethyl-5-phenyl-4,5-dihydro-1H-pyrazol-3-yl)-1,2,4-oxadiazol-3-yl]benzyl}azetidine-3-carboxylic acid] | 24
CCCN1N=C(c2nc(-c3ccc(CN4CC(C(=O)O)C4)cc3)no2)CC1c1ccccc1 (stereo not shown) [Compound 6, 1-{4-[5-(5-phenyl-1-propyl-4,5-dihydro-1H-pyrazol-3-yl)-1,2,4-oxadiazol-3-yl]benzyl}azetidine-3-carboxylic acid] | 75
